Values quoted from earlier work as cited in patent US6515019B2, “Methods of providing symptomatic and prophylactic treatment for medical and neurological conditions” (priority 1996, dated 2003).

Experiments:
[1] = add-on therapy in partial epilepsy in children (Carmant J., Pediatr 125:481-486, 1994)
neuronal cell death = conditions: administered post-hoc; animal models of ischemia (Wasterlain 1993; Shuaib 1996; Wasterlain 1996)
[2] = patients on felbamate monotherapy (Faught E., Neurology 43:688-692, 1993)

NC(=O)OCC(COC(N)=O)c1ccccc1 [Felbamate, 2-phenyl-1,3-propanediol dicarbamate]
weight loss course [1]: transient and returned to normal after twenty weeks
prevention of neuronal cell death (neuronal cell death): effective in preventing neuronal cell death
Weight loss [2]: 4-5%
